Tests used:
[1] = target: T1, RXRα (Homo sapiens, UniProt P19793); experiment: holoreceptor transactivation assay, RXRα; assay type: cell-based; conditions: number in brackets
T1 construct: expressed in transfected cells
T1 sequence (P19793 1-462): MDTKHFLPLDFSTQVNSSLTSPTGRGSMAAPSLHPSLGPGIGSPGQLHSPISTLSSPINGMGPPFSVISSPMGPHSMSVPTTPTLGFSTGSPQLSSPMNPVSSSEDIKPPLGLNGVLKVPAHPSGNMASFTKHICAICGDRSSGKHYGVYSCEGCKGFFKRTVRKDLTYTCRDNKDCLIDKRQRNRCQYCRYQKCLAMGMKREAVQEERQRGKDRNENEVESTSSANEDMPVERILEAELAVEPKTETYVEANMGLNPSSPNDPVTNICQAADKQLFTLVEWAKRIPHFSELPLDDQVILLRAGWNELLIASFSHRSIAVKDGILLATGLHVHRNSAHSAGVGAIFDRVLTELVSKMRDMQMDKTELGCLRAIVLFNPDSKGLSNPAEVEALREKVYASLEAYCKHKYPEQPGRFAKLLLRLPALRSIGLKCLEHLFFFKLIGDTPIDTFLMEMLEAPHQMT
Description: A holoreceptor transactivation assay and a ligand binding assay which measure the antagonist/agonist like activity of the compounds of the invention, or their ability to bind to the several retinoid receptor subtypes, respectively, are described in published PCT Application No. WO WO93/11755 (particularly on pages 30–33 and 37–41) published on Jun. 24, 1993, the specification of which is also incorporated herein by reference. […] The results obtained in this assay are expressed in EC50 numbers, as they are also in the chimeric receptor transactivation assay. The results of the ligand binding assay are expressed in Ki numbers. (See Cheng et al. Biochemical Pharmacology Vol. 22 pp 3099–3108, expressly incorporated herein by reference.)
(§1) Particularly, the transactivation data pertaining to activation of the RAR receptors were obtained in the chimeric assay, and the transactivation data pertaining to the activation of RXR receptors were obtained in the holoreceptor assay.
(§2) In Table 1 NA stands for not active at all as an agonist. ND stands for not determined. The first row of numbers pertaining to each compound is the measured EC50 number. […] The third row of numbers pertaining to each compound is the binding Ki number.

[2] = target: T2, RXRβ (UniProt P28704); experiment: holoreceptor transactivation assay, RXRβ; assay type: cell-based
T2 sequence (P28704 1-520): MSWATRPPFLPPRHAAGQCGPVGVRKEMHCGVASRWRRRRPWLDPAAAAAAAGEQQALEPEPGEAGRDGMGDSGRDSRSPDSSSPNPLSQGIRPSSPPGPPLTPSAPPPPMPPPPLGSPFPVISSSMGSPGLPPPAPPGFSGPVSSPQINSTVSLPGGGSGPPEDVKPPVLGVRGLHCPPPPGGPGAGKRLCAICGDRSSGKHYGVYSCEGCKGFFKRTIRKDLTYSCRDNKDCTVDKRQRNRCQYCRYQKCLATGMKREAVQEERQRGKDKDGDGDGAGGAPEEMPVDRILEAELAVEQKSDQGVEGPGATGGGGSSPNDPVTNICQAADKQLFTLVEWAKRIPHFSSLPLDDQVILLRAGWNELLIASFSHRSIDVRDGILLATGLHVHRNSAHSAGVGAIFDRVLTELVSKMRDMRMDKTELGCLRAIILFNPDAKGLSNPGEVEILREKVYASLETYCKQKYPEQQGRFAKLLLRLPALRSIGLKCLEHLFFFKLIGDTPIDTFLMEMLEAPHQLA
Description: The results obtained in this assay are expressed in EC50 numbers, as they are also in the chimeric receptor transactivation assay. The results of the ligand binding assay are expressed in Ki numbers.
as §1, §2

[3] = test system: diabetic db/db mice; experiment: serum glucose in diabetic db/db mice, 7 days oral dosing; assay type: in vivo; conditions: for Glucose: 10 mg/kg once daily oral gavage, mean +/- SD
Protocol: (§3) Effects of RXR agonists on serum glucose and triglyceride were studied in diabetic db/db mice. […] Briefly, animals were dosed once daily by oral gavage using corn oil vehicle for a period of 7 consecutive days. Serum samples were collected on day 1 (first day of dosing) and day 7 at hour 0 (immediately prior to dosing) and hour 3 (approximately 3 hours after dosing). Serum glucose and triglyceride levels of these samples were measured as described in the reference manuals: Glucose/HK. Boehringer Mannheim Corporation, 9115 Hague Road, Indianapolis, Ind., USA and Triglycerides/GPO. Roche Diagnostics Corporation, 9115 Hague Road, Indianapolis, Ind., USA, expressly incorporated herein. Only those animals with glucose levels of higher than 300 mg/dl at 0 hour on day 1 were considered as diabetic and included in data analysis.
(§4) A measured amount of dosing solution was withdrawn into a metal feeding tube attached to a marked syringe. Animals were restrained by grasping of their back skin while the feeding tube was gently inserted into their mouth and into esophagus. A fixed amount of the dosing solution was displaced into the esophagus/stomach of the animal by pushing the plunger of the syringe. Serum samples were collected from the retro-orbital sinus while the animals were anesthetized. These samples were analyzed by using commercially available kits from Boehringer Manheim for their glucose levels and Roche Diagnostics for their triglyceride levels in a Boehringer Manheim Hatachi Clinical Chemistry Analyzer.
(§5) For glucose assay, an enzymatic reaction using hexokinase and glucose-6-phosphodehydrogenase to catalyze glucose to gluconate-6phosphate and NADPH was employed. The amount of NADPH formed during these reactions was equivalent to the amount of glucose in the serum and was measured with a spectrophotometer. For triglycerides, a series of enzymatic reactions which included lipase, glycerol kinase and glycerol phosphate oxidase to formed dihydroacetone phosphate and peroxidase. The peroxidase produced catalyzed a reaction between peroxide and 4-aminophenazone and 4-chlorophenol in a Trinder reaction to generate a color change. This color change was measured by a spectrophotometer and reflected the amount of triglyceride in the sample.

[4] = test system: diabetic db/db mice; experiment: serum triglycerides in diabetic db/db mice, 7 days oral dosing; assay type: in vivo; conditions: for Triglycerides: 10 mg/kg once daily oral gavage, mean +/- SD
Protocol: as §3, §4, §5

[5] = test system: young db/db mice; experiment: serum thyroxine (T4) in young db/db mice, 14 days oral dosing; assay type: in vivo
Protocol: In another study the efficacy of RXR agonists in the prevention of diabetes was tested in young db/db mice. […] Serum samples were analyzed by using commercially available kits from Boehring Manheim for their thyroxine (T4) levels in a Boehringer Manheim Hatachi Clinical Chemistry Analyzer as described in the reference manual of Boehringer Mannheim Corporation, 9115 Hague Road, Indianapolis, Ind., USA, expressly incorporated herein.

[6] = Day 1, 0 hr (immediately prior to dosing)

RXR α efficacy in percentage as compared to the standard compound [1]: 100%
RXR β efficacy in percentage as compared to the standard compound [2]: 0.4(100)1%
effect on serum triglyceride (in words) ([4]; mouse, in vivo): induces hypertriglyceridemia
Serum thyroxine ([5]; 5 mg/kg orally for 14 days, mean +/- SD (n = 7)): 0.83 ± 0.29 µg/dL
effect on serum T4 (in words) ([5]; mouse, in vivo): lowering serum T4
SMILES: CC(/C=C/[C@@H]1C[C@]1(C)c1ccc2c(c1)C(C)(C)CCC2(C)C)=C\C(=O)O [Standard compound, (2E,4E,1′S,2′S)-3-methyl-5-[2′-methyl-2′-(5,5,8,8-tetramethyl-5,6,7,8-tetrahydro-naphthalen-2-yl)-cyclopropyl]-penta-2,4-dienoic acid, reference compound]
efficacy in activating RXRβ compared with RXRα and RXRγ subtypes (in words) [2]: approximately equally efficacious in activating the RXRα, RXRβ and RXRγ subtypes
Glucose [3, 6]: 501 ± 87 mg/dL
Glucose ([3]; Day 1, 3 hr): 403 ± 86 mg/dL
Glucose ([3]; Day 7, 0 hr): 367 ± 101 mg/dL
Glucose ([3]; Day 7, 3 hr): 301 ± 40 mg/dL
effect on serum glucose in diabetic mouse (in words) ([3]; mouse, in vivo): capable of lowering serum glucose
Triglycerides [4, 6]: 183 ± 50 mg/dL
Triglycerides ([4]; Day 1, 3 hr): 220 ± 87 mg/dL
Triglycerides ([4]; Day 7, 0 hr): 137 ± 32 mg/dL

Source: patent US7019034B2, “Compositions and methods for reducing serum glucose and triglyceride levels in diabetic mammals” (Allergan, Inc., priority 2003, dated 2006)
